Values of other authors, collected in patent US11839666B2, “Oral care article comprising a hydrophobic delivery carrier and solid hydrophilic particles comprising an agent” (The Procter & Gamble Company, priority 2020, dated 2023).
Where two headings read alike, the source gives them in different places.

Details: at 20 C

NC(N)=O.OO [Urea Hydrogen Peroxide Adduct]
Solubility in water (per Safety Data Sheet from supplier): 800 grams per liter
Solubility in water (restated from Safety Data Sheet value): 80 parts per 100 parts of water
